For data set [1], the target named is CYP2E1 and Epoxide Hydrolase (EH) (Homo sapiens, UniProt P05181).
Description: Styrene is incubated in a first incubation step with microsomal membranes of baculovirus-infected Sf9 insect cell membranes that contain CYP2E1 and POR. In a second incubation step, this sample is incubated with EH.
In the first step, 3 μl styrene (77 mM in acetonitrile), 425 μl potassium phosphate buffer (50 mM, pH 7.4), 16.5 μl MgCl2, 50 pmole of CYP2E1 containing cytochrome P450 reductase (purchased from BD Bioscience, Gentest, US) and water are mixed to give a total volume of 470 μl. 30 μl NADPH (50 mM in water) are added to the sample, to the control 30 μl water are added. Sample and control are incubated at 37° C. for 1 hour.
In the second step, 50 μl of 1 M Tris-Cl, pH 9 followed by 0.4 mg/ml protein (human microsomal epoxide hydrolase microsomes, 25,000 pmole styrene oxide hydrolase activity/(min×mg protein) BD Bioscience, Gentest, US) is added and incubation is continued for 30 min.
After the second step, 100 μl acetonitrile is added to sample and control and they are placed on ice. This stops the enzymatic reaction. Compounds in the samples are extracted with MTBE.
Metabolites, i.e. additional compounds present in the sample but not in the control, are identified by GC-MS.
Data set [2] addresses T1, equine liver ADH (EC 1.1.1.1) (Equus caballus, UniProt P00327).
T1 construct: purchased Sigma-Aldrich, Switzerland
Briefly: Incubation of octanol with alcohol dehydrogenase (ADH), metabolite by GC and GC-MS. The class given is in vitro ADME. The note with it: octanol 0.1 M, 50 mU ADH, 10 mM NAD+, pH 8.5, 30 min at 25° C. The method, then: Human alcohol dehydrogenase exists as a heterogeneous group of isozymes capable of oxidizing a wide variety of aliphatic and aromatic alcohols. Any isozyme of the human enzyme can be used. In this example, equine liver ADH (EC 1.1.1.1; Sigma-Aldrich, Switzerland) is used instead of the human enzyme. Octanol is incubated with ADH in a 1-ml reaction volume containing 50 mM potassium phosphate (pH 8.5) and 10 mM NAD+ (Fluka, Switzerland). Octanol is added at a concentration of 0.1 M and the metabolic reaction is initiated by addition of 50 mU of ADH and incubated for 30 min at 25° C. The tube is centrifuged to separate any debris and the supernatant extracted with MTBE for analysis by GC and GC-MS. […] The metabolite is identified by GC analysis and GC-MS as octanal.

Data set [3] concerns the target T2, rat olfactory receptor 17 (Rattus norvegicus, UniProt P23270).
T2 construct: expressed in transfected cells; host or cells: HEK293
T2 sequence (P23270 1-327): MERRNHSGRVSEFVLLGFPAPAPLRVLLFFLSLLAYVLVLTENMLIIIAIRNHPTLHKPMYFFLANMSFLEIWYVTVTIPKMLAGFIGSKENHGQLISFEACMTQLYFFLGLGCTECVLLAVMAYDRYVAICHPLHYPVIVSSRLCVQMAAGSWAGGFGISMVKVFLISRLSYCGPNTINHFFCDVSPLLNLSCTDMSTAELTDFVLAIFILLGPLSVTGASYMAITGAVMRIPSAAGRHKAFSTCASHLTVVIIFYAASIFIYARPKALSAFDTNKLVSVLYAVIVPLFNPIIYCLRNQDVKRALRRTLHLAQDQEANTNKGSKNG
The data set can be described thus: Receptor screen using HEK293 cells expressing Galpha-15,16 and the rat olfactory receptor 17, intracellular calcium. The note with it: octanol incubated with ADH (octanal present) versus control without enzyme. The class given is cell-based. How it is done: Octanol is incubated with alcohol dehydrogenase as described in example 10, controls without alcohol dehydrogenase are incubated accordingly. In the presence of the enzyme, the metabolite of octanol, which is octanal, is present as shown in example 10.
The rat olfactory receptor 17 together with the Galpha15,16 are expressed by co-transfection in HEK293 cells as described by Krautwurst et al. (1998), Cell 95:917-926. Transfected HEK293 cells are plated on coverslips, 24-well tissue culture plates, and microtiter plates. These coverslips and plates are incubated with Fura-2 as described in example 8. The microtiter plates are incubated as described by Krautwurst et al. (1998).
The supernatant is transferred to an empty container and diluted with 2×HEPES (4 mM Ca^2+). This dilution is used as a sample in the receptor screen as described in Example 8, using HEK293 cells that express Galpha-15,16 and the rat olfactory receptor 17.
Fluorescence recording is performed to monitor any increase in intracellular, cytoplasmic calcium levels.
In general terms: Calcium assays in cells follow changes in intracellular calcium, usually with a dye or a luminescent sensor.

Data set [4] deals with T3, human recombinant carboxyl esterase (CE) (Homo sapiens, UniProt P23141).
T3 construct: In order to clone the full-length gene encoding CE; made in house; host or cells: Sf9 insect cells, baculovirus (pBlueBac4.5), used as microsomes
T3 sequence (P23141 18-566 isoform P23141-3 limits assumed): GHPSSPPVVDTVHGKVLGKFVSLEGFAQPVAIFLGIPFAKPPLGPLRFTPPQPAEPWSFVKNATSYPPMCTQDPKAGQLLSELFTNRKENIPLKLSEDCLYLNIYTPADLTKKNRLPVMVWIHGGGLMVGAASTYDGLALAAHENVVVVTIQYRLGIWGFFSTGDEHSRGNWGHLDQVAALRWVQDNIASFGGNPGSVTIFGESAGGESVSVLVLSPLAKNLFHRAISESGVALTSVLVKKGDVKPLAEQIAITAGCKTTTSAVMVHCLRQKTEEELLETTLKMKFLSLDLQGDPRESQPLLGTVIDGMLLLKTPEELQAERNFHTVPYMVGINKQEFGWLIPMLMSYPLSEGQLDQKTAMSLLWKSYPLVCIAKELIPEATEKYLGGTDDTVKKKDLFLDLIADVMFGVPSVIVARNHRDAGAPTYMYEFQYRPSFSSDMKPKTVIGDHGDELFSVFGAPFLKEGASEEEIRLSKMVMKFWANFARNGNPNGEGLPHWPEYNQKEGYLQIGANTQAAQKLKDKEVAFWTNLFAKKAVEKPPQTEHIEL
Briefly: Incubation with human recombinant carboxyl esterase (CE) and standard substrate p-nitrophenylacetate, absorbance at 405 nm. It is filed as biochemical. The conditions noted are these: 0.1 mM p-nitrophenylacetate, test compound 0-1 mM, 25° C., pH 7.2.
Description: The incubation of a test compound (potential substrate or modulator of CE) and CE is performed in the presence of a standard substrate, for example p-nitrophenylacetate. The hydrolysis product of p-nitrophenylacetate is p-nitrophenol which can be detected by measuring the absorbance at 405 nm. […] The incubation mixture contains CE microsomes containing CE enzyme corresponding to 4 mU of CE in a total volume of 0.2 ml (1 U hydrolyzes 1.0 μmole of ethylbutyrate to butyrate and ethanol per min at pH 8.0, 25° C.), 0.1 mM p-nitrophenylacetate, and the test compound in 50 mM potassium phosphate buffer (pH 7.2). The test compound is employed at different concentrations, for example 0, 0.05, 0.1, 0.25, 0.5, 1 mM, to allow detection of a dose-dependent effect. Samples that contain no test compound serve as a negative control. The samples are incubated at 25° C. and the increase in absorbance at 405 nm is measured every 5 minutes for 30 minutes.

In data set [5] the target is T3, human recombinant carboxyl esterase (CE). Briefly: Incubation with CE in the absence of the standard substrate, metabolites by GC and GC-MS. It is filed as in vitro ADME. The method, then:
Incubation with CE is performed in the absence of the standard substrate using 10 mU of CE in a total volume of 0.5 ml with the substrate at 0.25 mM and 50 mM potassium phosphate as the assay buffer.
GC and GC-MS analysis show the formation of an additional peak which is identified as menthol, which is a metabolite of menthyl-lactate.

The target in data set [6] is hTRPM8 (Homo sapiens, UniProt Q7Z2W7). Briefly: Receptor screen using hTRPM8-expressing CHO-K1/FRT cells, Fura-2 intracellular calcium. The note with it: for Receptor ligand character at hTRPM8: conclusion from the receptor screen after the metabolic reaction with CE; for Intracellular calcium levels in hTRPM8-expressing CHO-K1 cells: menthyl-lactate incubated with CE (menthol formed) versus control with substrate but without CE.
Sequence of hTRPM8 (Q7Z2W7 whole entry): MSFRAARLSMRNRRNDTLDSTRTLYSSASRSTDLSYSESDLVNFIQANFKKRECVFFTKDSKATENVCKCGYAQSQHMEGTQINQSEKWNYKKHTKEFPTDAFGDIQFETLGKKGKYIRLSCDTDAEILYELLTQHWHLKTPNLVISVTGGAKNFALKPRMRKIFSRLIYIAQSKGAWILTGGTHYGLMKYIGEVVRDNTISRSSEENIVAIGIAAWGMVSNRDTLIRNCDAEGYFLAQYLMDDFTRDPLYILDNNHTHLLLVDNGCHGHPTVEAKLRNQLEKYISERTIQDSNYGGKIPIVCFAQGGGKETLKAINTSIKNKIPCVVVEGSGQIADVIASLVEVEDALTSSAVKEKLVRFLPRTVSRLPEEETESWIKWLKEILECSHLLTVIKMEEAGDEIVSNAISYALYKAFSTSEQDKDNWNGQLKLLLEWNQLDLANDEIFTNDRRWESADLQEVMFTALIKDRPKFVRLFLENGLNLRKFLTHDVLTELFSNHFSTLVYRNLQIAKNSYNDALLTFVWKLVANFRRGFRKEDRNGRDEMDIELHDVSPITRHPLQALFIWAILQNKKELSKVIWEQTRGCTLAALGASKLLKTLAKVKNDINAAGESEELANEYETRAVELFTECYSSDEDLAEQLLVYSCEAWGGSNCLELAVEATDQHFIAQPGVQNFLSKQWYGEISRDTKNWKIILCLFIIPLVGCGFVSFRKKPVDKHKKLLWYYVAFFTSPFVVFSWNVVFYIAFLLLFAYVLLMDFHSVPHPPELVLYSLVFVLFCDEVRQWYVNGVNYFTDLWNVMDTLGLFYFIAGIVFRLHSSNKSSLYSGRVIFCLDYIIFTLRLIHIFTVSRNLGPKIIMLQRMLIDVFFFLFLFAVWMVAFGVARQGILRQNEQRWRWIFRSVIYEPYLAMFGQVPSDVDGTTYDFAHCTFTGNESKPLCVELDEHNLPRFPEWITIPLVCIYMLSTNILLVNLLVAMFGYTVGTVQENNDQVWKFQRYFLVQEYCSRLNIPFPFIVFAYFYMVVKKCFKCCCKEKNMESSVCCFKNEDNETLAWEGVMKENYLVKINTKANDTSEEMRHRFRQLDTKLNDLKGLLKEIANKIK
Description: The stable CHO-K1/FRT cell clones that express hTRPM8 are used in a receptor screen to identify ligands of said receptor. This is performed analogous to the method described by Peier et al. (Cell (2002) 108:705-715) for the mouse TRPM8 cDNA. Glass coverslips, 24-well and 96-well tissue culture plates are used for cell plating. Cells are loaded with the calcium-sensitive fluorescent dye Fura-2 acetoxymethyl ester (Fura-2AM). As a test compound, menthol or another known ligand is diluted in a suitable buffer compatible with the CHO-K1/FRT cells.
Menthyl-lactate, a substrate of CE, is incubated with CE. Controls contain menthyl-lactate but not CE. The incubation is performed as described in Examples 7B, subject to the following modifications: after 30 min incubation time at 25° C., the samples are chilled on ice for 10 min and centrifuged. Supernatants are transferred to empty wells and diluted with 1 volume 2×HEPES (4 mM Ca^2+). The dilution is used as a test sample in a receptor screen as described in Example 8.

In data set [7] the target is T4, human CYP2A13 (Homo sapiens, UniProt Q16696).
T4 sequence (Q16696 1-494): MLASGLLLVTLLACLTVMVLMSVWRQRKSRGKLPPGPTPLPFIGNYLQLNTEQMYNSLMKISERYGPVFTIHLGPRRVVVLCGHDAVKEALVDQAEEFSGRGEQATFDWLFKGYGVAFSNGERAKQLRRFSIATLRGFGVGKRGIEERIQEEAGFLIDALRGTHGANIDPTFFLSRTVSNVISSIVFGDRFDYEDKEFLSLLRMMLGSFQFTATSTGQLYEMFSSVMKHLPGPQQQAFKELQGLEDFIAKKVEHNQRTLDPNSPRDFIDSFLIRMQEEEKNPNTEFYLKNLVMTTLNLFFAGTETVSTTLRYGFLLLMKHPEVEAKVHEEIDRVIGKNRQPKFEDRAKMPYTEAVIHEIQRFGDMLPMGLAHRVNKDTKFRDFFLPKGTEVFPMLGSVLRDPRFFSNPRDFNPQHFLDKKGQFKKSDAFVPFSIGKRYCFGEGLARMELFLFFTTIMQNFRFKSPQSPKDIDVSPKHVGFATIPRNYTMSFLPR
The conditions noted are these: 60 min, 0.3 mM, pH 7.4.
Description: (§1) 100 pmoles human recombinant NADPH-P450 reductase contained in microsomes (BD Biosciences Gentest, USA) are incubated with 50 pmoles CYP2A13 microsomes for 15 minutes on ice. Freshly sonicated dilaurylphosphatidylcholine (DLPC, Fluka, Switzerland) is added from a stock solution (1 mg/ml in water) to give a final concentration of 0.025 mg/ml (0.5 ml final reaction volume) and the mixture is incubated on ice for 15 minutes. Potassium phosphate buffer (1 M, pH 7.4) and water are added to give a buffer concentration of 0.1M in a final volume of 0.5 ml. The test compound is prepared as a 50 mM stock solution in acetonitrile. […]
(§2) Following the 60 min incubation, the sample is chilled on ice for 10 minutes and the enzymatic reaction is stopped by extraction with 0.3 ml of the organic solvent methyl-t-butyl-ether (MTBE) that allows separating the test compound and its metabolites from the aqueous phase which contains the enzymes. 1 microliter of the MTBE fraction is analysed by GC and GC-MS to identify metabolites which are present in the enzymatic reaction, but not in the control.
(§3) For test compounds which show a decrease in umbelliferone-derived fluorescence, the incubation with the enzyme but without coumarin and analysis of metabolites is performed by GC and GC-MS as described in Example 2A. […]

The target in data set [8] is T5, human microsomal epoxide hydrolase (EH) (Homo sapiens, UniProt P07099).
T5 construct: purchased BD Bioscience, Gentest, US
T5 sequence (P07099 1-455): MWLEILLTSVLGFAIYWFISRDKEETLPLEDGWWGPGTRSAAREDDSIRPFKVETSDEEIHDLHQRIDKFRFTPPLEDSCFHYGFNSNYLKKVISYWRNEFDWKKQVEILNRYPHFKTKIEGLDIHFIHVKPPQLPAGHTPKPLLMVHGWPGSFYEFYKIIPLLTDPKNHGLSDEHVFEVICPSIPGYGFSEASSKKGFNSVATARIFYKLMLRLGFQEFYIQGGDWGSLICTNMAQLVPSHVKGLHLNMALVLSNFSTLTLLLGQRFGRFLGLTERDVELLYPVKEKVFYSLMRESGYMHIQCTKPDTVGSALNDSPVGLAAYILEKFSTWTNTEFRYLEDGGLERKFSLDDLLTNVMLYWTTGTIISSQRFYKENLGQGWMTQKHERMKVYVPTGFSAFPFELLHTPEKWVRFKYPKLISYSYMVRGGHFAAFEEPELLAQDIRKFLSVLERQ
Briefly: Incubation of styrene oxide with human microsomal epoxide hydrolase (EH), metabolite by GC-MS. The class given is in vitro ADME. The conditions noted are these: 0.5 mM styrene oxide, 0.2 mg/ml EH, pH 9, 30 min at 37° C.

The target in data set [9] is T4, human CYP2A13. The data set can be described thus: Incubation of a test compound with human CYP2A13 and identification of metabolites by GC and GC-MS. The conditions noted are these: from decrease of umbelliferone and metabolite found by GC-MS.
Description: as §1, §2, §3

SMILES strings stand for the structures.

Sequence of CYP2E1 and Epoxide Hydrolase (EH) (P05181 whole entry): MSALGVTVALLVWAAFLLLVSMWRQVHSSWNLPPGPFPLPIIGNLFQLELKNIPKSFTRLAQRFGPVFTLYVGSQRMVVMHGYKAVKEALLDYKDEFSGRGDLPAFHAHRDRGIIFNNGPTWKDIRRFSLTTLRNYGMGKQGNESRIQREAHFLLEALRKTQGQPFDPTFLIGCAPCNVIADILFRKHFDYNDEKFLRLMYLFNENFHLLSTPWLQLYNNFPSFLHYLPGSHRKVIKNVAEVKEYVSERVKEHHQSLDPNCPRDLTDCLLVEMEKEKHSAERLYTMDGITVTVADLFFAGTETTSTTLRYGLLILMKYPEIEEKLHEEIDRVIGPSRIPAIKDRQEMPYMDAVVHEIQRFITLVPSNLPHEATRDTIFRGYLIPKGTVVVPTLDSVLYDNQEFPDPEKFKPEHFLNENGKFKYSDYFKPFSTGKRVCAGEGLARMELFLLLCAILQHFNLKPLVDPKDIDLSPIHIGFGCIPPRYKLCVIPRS
T1 sequence (P00327 2-375 limits assumed): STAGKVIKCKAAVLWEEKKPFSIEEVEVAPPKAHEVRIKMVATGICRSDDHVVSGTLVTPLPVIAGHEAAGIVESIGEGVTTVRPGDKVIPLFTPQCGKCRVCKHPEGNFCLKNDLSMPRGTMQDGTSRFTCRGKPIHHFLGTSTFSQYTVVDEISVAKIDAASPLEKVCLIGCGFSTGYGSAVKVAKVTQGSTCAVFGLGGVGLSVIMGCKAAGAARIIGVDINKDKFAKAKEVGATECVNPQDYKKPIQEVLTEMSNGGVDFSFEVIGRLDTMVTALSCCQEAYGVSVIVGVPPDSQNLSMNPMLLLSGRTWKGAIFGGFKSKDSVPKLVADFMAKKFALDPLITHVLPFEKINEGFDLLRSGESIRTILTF

Take `C=Cc1ccccc1` [styrene]: the “Identified metabolites by GC-MS (present in the sample, not in the control)” value in [1] was “styrene epoxide and the corresponding diol”.
With `CCCCCCCCO` [octanol], the “Metabolite identified by GC analysis and GC-MS” value in [2] was “octanal”. The “Activation of the rat olfactory receptor 17 (increase in intracellular calcium levels)” value in data set [3] is on record as “not able to activate the receptor”.
For the molecule `CC1CCC(C(C)C)C(OC(=O)C(C)O)C1` (centres unmarked) [menthyl-lactate], the “Formation of the enzymatic reaction product of p-nitrophenylacetate compared to negative control” value in data set [4] was “concentration-dependent decrease”. In addition, the “Metabolite identified by GC and GC-MS (additional peak)” value in data set [5] (10 mU CE, substrate 0.25 mM, 30 min at 25° C., no standard substrate) is listed as “menthol”. For the same molecule, in [5] (from decrease of standard product and metabolite found), the “Identification as substrate or modulator of human CE” value was “substrate of human CE”. Further, in [6], the “Receptor ligand character at hTRPM8” value is “not the main receptor ligand” and the “Intracellular calcium levels in hTRPM8-expressing CHO-K1 cells” value was “no comparable increase”.
As for `COCC(=O)c1ccccc1` [2-methoxyacetophenone], in [7], the “Metabolite identified by GC and GC-MS (additional peak present in the sample, not in the control)” value was 2-hydroxyacetophenone.
Take `CCCCCCCC=O` [octanal]: the “Activation of the rat olfactory receptor 17 (increase in intracellular calcium levels)” value in data set [3] is reported as “agonist”.
Turning to `c1ccc(C2CO2)cc1` (centres unmarked) [styrene oxide], the “Metabolite found by GC-MS in the sample but not in the control” value in data set [8] is listed as “diol”.
Consider `CN(C)c1ccccc1` [N,N-dimethylaniline], for which the “Identification as substrate or modulator of CYP2A13” value in [9] was “substrate of CYP2A13”.
Consider `CC1CCC(C(C)C)C(O)C1` (centres unmarked) [menthol], for which, in data set [6], the “Receptor ligand character at hTRPM8” value is “preferred hTRPM8 agonist” and the “Intracellular calcium levels in hTRPM8-expressing CHO-K1 cells” value is recorded as “increase of intracellular calcium levels”.

Values taken from patent US9012169B2, “Metabolic method to identify compounds having flavor or fragrance” (Givaudan S.A., priority 2004, dated 2015).
